The source of these data is US12630643B2, “CD40 binding protein, bispecific conjugate thereof and method of treating cancer” (priority 2020, dated 2026).

One assay deals with IBIIICI scFv. It counts as binding, mouse.
A further assay addresses 14GIIICII scFv. It counts as binding, mouse.
For another assay, the target named is T1, Canine CD40-Fc (Canis lupus familiaris, UniProt Q7YRL5).
T1 construct: purchased Sino Biological 70105-D02H
T1 sequence (Q7YRL5 21-193 limits assumed): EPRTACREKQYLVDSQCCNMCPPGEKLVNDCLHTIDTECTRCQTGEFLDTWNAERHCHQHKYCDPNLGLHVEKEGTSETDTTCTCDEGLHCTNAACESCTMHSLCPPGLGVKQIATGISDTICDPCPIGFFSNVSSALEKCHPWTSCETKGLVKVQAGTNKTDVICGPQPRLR
In words: SPR single cycle kinetics of Example 5, canine CD40-Fc. It counts as binding.

The target of the next assay is T2, canine (dog) CD40 (Canis lupus familiaris, UniProt Q7YRL5).
T2 sequence (Q7YRL5 21-274): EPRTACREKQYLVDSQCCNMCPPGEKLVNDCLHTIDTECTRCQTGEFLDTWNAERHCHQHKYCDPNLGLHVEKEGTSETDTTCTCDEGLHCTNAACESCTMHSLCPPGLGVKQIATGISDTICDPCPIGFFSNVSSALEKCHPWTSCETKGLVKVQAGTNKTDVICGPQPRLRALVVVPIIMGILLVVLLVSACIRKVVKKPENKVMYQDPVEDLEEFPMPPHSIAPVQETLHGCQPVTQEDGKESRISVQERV
To be noted: stated in US2006-0093600; cited from earlier work.

Assay [1] concerns the target CD40 ligand interaction with CD40 (Homo sapiens, UniProt P25942). To be noted: Yu et al. 2018; WO 2015/091853; cited from earlier work.
Assay [2] deals with T3, Human CD40-Fc (Homo sapiens, UniProt P25942). In words: SPR single cycle kinetics of Example 5, human CD40-Fc. Also on record: purchased Sino Biological 10774-H38H. The following applies: 1:1 Binding.
Target sequence in this assay (P25942 21-193 limits assumed): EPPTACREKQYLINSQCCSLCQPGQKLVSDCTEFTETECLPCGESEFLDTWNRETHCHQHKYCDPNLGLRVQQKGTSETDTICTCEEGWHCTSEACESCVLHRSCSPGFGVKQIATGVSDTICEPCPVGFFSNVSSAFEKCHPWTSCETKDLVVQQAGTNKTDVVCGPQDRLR
The next assay addresses CD40 on CD19+ cells (Homo sapiens, UniProt P25942). In words: Competitive binding with anti-CD40-FITC antibody 5C3, flow cytometry. The following applies: 25 nM-50 nM antibody, 30 min on ice.
Assay [3] has as its target T3, Human CD40-Fc. In words: SPR kinetic measurements (single cycle kinetics) on captured IgG2, hCD40-Fc. The following applies: for ka / kd: Human CD40-Fc (dimer, avidity effects may contribute). A general note: SPR reads the build-up and loss of mass on a sensor chip optically.
Target sequence in this assay (P25942 21-193): as the sequence (P25942 21-193 limits assumed) above
The test system of a further assay is Cynomolgus CD40-Fc. In words: SPR kinetic measurements (single cycle kinetics) on captured IgG2, cCD40-Fc. The following applies: for ka / kd: Cynomolgus CD40-Fc (dimer, avidity effects may contribute).
For another assay, the target named is Human CD40-avi (Homo sapiens, UniProt P25942). In words: SPR kinetic measurements (single cycle kinetics) on captured IgG2, hCD40-avi. To be noted: 1:1 Langmuir binding model.
Assay [4] has as its system human monocyte-derived dendritic cells. The assay can be described thus: Internalisation of antibody into dendritic cells. To be noted: 125 nM antibody.
The test system of assay [5] is human monocyte-derived DC (MoDC). In words: MoDC activation, flow cytometry of surface activation markers (t-SNE). The following applies: 125 nM antibody, 48 hours of stimulation. (In general: Flow cytometry measures light scatter and fluorescence of single cells or particles in a stream.)

Chain of Human CD40-avi (P25942 21-193): as the sequence (P25942 21-193 limits assumed) above
Chain of CD40 ligand interaction with CD40 (P25942 21-277): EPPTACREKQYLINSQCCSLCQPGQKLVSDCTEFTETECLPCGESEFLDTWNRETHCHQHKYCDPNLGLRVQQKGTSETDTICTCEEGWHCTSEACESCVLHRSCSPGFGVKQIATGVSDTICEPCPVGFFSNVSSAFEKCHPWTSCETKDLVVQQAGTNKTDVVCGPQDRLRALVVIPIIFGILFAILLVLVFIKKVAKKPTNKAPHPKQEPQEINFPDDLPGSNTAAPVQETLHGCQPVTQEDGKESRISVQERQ
Chain of CD40 on CD19+ cells (P25942 21-277): as above

With FIGITELKKLES [UU74], at IBIIICI scFv, the Kd was determined as 120 pM, the “ka” value turned out to be 280000 M⁻¹ s⁻¹ and the “kd” value was determined as 3.3e-05 s⁻¹. On 14GIIICII scFv, the Kd turned out to be 1700 pM, the “ka” value stood at 570000 M⁻¹ s⁻¹ and the “kd” value stood at 0.00095 s⁻¹.

For FIGITELKKLESK [UU73], at IBIIICI scFv, the Kd came out at 340 pM, the “ka” value was determined as 200000 M⁻¹ s⁻¹ and the “kd” value was determined as 6.7e-05 s⁻¹. Besides, at 14GIIICII scFv, the Kd was 870 pM, the “ka” value was 510000 M⁻¹ s⁻¹ and the “kd” value worked out at 0.00044 s⁻¹.

In the case of FIGITELKKLESKI [UU72], in the assay on IBIIICI scFv, the “ka” value was found to be 250000 M⁻¹ s⁻¹ and the “kd (1/s)” value is reported as “* (key: *: too low for, or very close to the detection limit of, instrument specification (<10^−5))”. On 14GIIICII scFv, the Kd stood at 600 pM, the “ka” value amounted to 570000 M⁻¹ s⁻¹ and the “kd” value came out at 0.00034 s⁻¹.

For the molecule FIGITELKKLESKIN [UU71], in the assay with IBIIICI scFv, the “ka” value was 230000 M⁻¹ s⁻¹ and the “kd (1/s)” value is given as “* (key: *: too low for, or very close to the detection limit of, instrument specification (<10^−5))”. Also, on 14GIIICII scFv, the Kd came to 600 pM, the “ka” value was 540000 M⁻¹ s⁻¹ and the “kd” value is 0.00032 s⁻¹.

With FIGITELKKLESKINK [UU70], on IBIIICI scFv, the Kd amounted to 160 pM, the “ka” value stood at 230000 M⁻¹ s⁻¹ and the “kd” value was 3.7e-05 s⁻¹. In addition, at 14GIIICII scFv, the Kd amounted to 290 pM, the “ka” value came to 650000 M⁻¹ s⁻¹ and the “kd” value was determined as 0.00019 s⁻¹.

With “FIGITELKKLESKINKVF (SEQ ID NO: 25), C-term K-biotin; full length MTTE [UU24]”, at IBIIICI scFv, the Kd stood at 120 pM, the “ka” value came to 190000 M⁻¹ s⁻¹ and the “kd” value is 2.3e-05 s⁻¹. Also, at 14GIIICII scFv, the Kd was 300 pM, the “ka” value came to 660000 M⁻¹ s⁻¹ and the “kd” value was found to be 0.0002 s⁻¹.

For “X-SM083-ab-5: agonistic anti-CD40 antibody CP-870,893 (US 2017/0342159) as hIgG2”, the “Ka” value in the assay with Canine CD40-Fc (Canine CD40-Fc, 1:1 Binding) is 170000 M⁻¹ s⁻¹; in the assay with Human CD40-Fc [2] (optimised follow-up experiment), 190000 M⁻¹ s⁻¹. In addition, the “kd” value with Canine CD40-Fc (Canine CD40-Fc, 1:1 Binding) worked out at 0.00041 s⁻¹; with Human CD40-Fc [2] it was 3.6e-05 s⁻¹; with Human CD40-Fc [3], 3.2e-05 s⁻¹; on Cynomolgus CD40-Fc, 2.5e-05 s⁻¹; with Human CD40-avi, 0.0011 s⁻¹. Besides, the “affinity for canine CD40 lower than for the human orthologue” value with Canine CD40-Fc (canine vs human CD40-Fc) is listed as “approximately 10 times”. Also, the “binding to canine CD40” value in the assay with Canine CD40-Fc (in words) is listed as “exhibited binding to canine CD40”. Moreover, the “binding to canine (dog) CD40” value with canine (dog) CD40 is recorded as “does not bind to canine (dog) CD40”. In [1], the “competition with / blocking of CD40 ligand” value is “without blocking CD40 ligand interaction”. Besides, the figures for the Kd with Human CD40-Fc [2] (read-out: ^appKD) and with Human CD40-avi were 200 pM and 18000 pM, respectively. For the same molecule, in the assay with CD40 on CD19+ cells, the “5C3-FITC staining after pre-incubation with antibody” value is recorded as “loss of the FITC signal”. The “ka” value with Human CD40-Fc [3] is 66000 M⁻¹ s⁻¹; with Cynomolgus CD40-Fc, 91000 M⁻¹ s⁻¹; with Human CD40-avi it was 62000 M⁻¹ s⁻¹.

B1: X-SM083-ab-2: agonistic anti-CD40 antibody 1150/1151 (WO 2015/091853) as hIgG2 (antibody)
heavy: EVQLLESGGGLVQPGGSLRLSCAASGFTFSSYAMSWVRQAPGKGLEWVSGIGGSSSYTSYADSVKGRFTISRDNSKNTLYLQMNSLRAEDTAVYYCARYYSYHMDYWGQGTLVTVSSASTKGPSVFPLAPCSRSTSESTAALGCLVKDYFPEPVTVSWNSGALTSGVHTFPAVLQSSGLYSLSSVVTVPSSNFGTQTYTCNVDHKPSNTKVDKTVERKCCVECPPCPAPPVAGPSVFLFPPKPKDTLMISRTPEVTCVVVDVSHEDPEVQFNWYVDGVEVHNAKTKPREEQFNSTFRVVSVLTVVHQDWLNGKEYKCKVSNKGLPAPIEKTISKTKGQPREPQVYTLPPSREEMTKNQVSLTCLVKGFYPSDISVEWESNGQPENNYKTTPPMLDSDGSFFLYSKLTVDKSRWQQGNVFSCSVMHEALHNHYTQKSLSLSPGK
light: DIQMTQSPSSLSASVGDHVTITCRASQSISSYLNWYQQKPGKAPKLLIYAASSLQSGVPSRFSGSGSGTDFTLTISSLQPEDFATYYCQQYGSAPPTFGQGTKLEIK
modifications: left off: a dimerising Fc or GST
notes: agonistic anti-CD40 antibody 1150/1151 (WO 2015/091853) as hIgG2
Consider B1, for which the “competition with / blocking of CD40 ligand” value in [1] is “No competition between this antibody and CD40 ligand was observed”. For the same molecule, in assay [4] (after 60 min at 37° C.), the internalisation was 50%. Further, in assay [4] (after 4 h incubation), the antibodies remained extracellular result was “Approximately 30%”. Besides, in assay [5], the “agonistic profile, t-SNE cluster of surface expression of CD14, CD1a, CD40, HLA-DR, CD86 and CD83” value is “potent agonistic profile”. For the same molecule, the “ka” value was determined as 320000 M⁻¹ s⁻¹ with Human CD40-Fc [3], 490000 M⁻¹ s⁻¹ in the assay with Cynomolgus CD40-Fc and 750000 M⁻¹ s⁻¹ in the assay with Human CD40-avi. For the same molecule, the “kd” value turned out to be 0.0014 s⁻¹ with Human CD40-Fc [3], 0.0018 s⁻¹ at Cynomolgus CD40-Fc and 0.14 s⁻¹ with Human CD40-avi. The Kd amounted to 4600 pM in the assay with Human CD40-Fc [3] (read-out: ^appKD, Human CD40-Fc, apparent affinity, 1:1 Langmuir model); 3800 pM on Cynomolgus CD40-Fc (read-out: ^appKD, Cynomolgus CD40-Fc, apparent affinity, 1:1 Langmuir model); 180000 pM with Human CD40-avi.
